Experimental data: patent US8927599B2, “Use of statins as anticonvulsants, antiepileptics and neuroprotectors” (Neuron Biopharma, S.A., priority 2008, dated 2015)
Like-named read-outs stand apart in the source and are kept apart here.

What was measured:
patient = settings: cited from earlier work
[1] = tested on: male mice of the FVB/N strain inoculated with kainate (KA); assay: Kainate-induced convulsions, epilepsy level on the Racine scale and latency (Example 1); type: in vivo; settings: for time of the onset of the first convulsion (latency): KA 30 mg/kg i.p., FIG. 1
Description: All the animals included during the experimental process were 16 week old male mice of the FVB/N strain [Taconic Farms, Inc. (www.taconic.com)]. The experiments were carried out strictly following the Guidance on the Operation of Animals (Scientific Procedures, Act. 1986). The animals had their respective quarantine period and were treated with maximum precaution to minimize possible contaminations during inoculations and handling.
The animals, distributed into different groups, were intraperitoneally inoculated with 30 mg/kg of kainate (KA) dissolved in phosphate buffer saline (PBS), according to the following protocol: • seven animals were pretreated, at 24 and 0.5 hours before the inoculation with KA, with PBS by means of intraperitoneal (i.p.) injection; • six animals were pretreated, at 24 and 0.5 hours before the inoculation with KA, with simvastatin at a dose of 50 mg/kg by means of i.p. injection; and • four animals were pretreated, at 24 and 0.5 hours before the inoculation with KA, with DNQX (a specific inhibitor of KA receptors) at a dose of 30 mg/kg, by means of i.p. injection.
(§1) After the inoculation with KA, the animals were individually housed in cages to monitor them. The maximum epilepsy level of the animals was recorded every 10 minutes during the observation according to the Racine scale and for at least 120 minutes post-inoculation (m.p.i.).

[2] = tested on: male mice of the FVB/N strain inoculated with kainate (KA); assay: Effect of the route of administration, kainate model (Example 3); type: in vivo; settings: FIG. 5
Description: As shown in Examples 1 and 2, simvastatin has antiepileptic properties and such properties depend on the dose at which said compound is administered. Due to these observations, the inventors decided to investigate if the antiepileptic effect of simvastatin would also be modulated by the route of administration. All the animals included during the experimental process were 16 week old male mice of the FVB/N strain. The experiments were carried out strictly following the Guidance on the Operation of Animals (Scientific Procedures, Act. 1986). The animals had their respective quarantine period and were treated with maximum precaution to minimize possible contaminations during inoculations and handling.
The animals, distributed into different groups, were intraperitoneally inoculated with 25 mg/kg of KA dissolved in PBS, according to the following protocol: • three animals were pretreated, at 24 and 0.5 hours before the inoculation with KA, with simvastatin at a dose of 50 mg/kg by means of direct oral administration; and • two animals were pretreated, at 24 and 0.5 hours before the inoculation with KA, with simvastatin at a dose of 50 mg/kg by means of i.p. injection
as §1

[3] = tested on: male mice of the FVB/N strain inoculated with kainate (KA); assay: Kainate-induced convulsions and status epilepticus, lovastatin (Example 10); type: in vivo; settings: KA 25 mg/kg i.p., 50 mg/kg i.p. at 24 and 0.5 h before KA
Description: All the animals included during the experimental process were 12 week old male mice of the FVB/N strain [Taconic Farms, Inc. (www.taconic.com)]. The experiments were carried out strictly following the Guidance on the Operation of Animals (Scientific Procedures, Act. 1986). The animals had their respective quarantine period and were treated with maximum precaution to minimize possible contaminations during inoculations and handling.
The mice, distributed into different groups, were intraperitoneally inoculated with 25 mg/kg of KA dissolved in PBS, according to the following protocol: • five mice were pretreated, at 24 and 0.5 hours before the inoculation with KA, with PBS by means of intraperitoneal (i.p.) injection; and • five animals were pretreated, at 24 and 0.5 hours before the inoculation with KA, with lovastatin at a dose of 50 mg/kg by means of i.p. injection
After the inoculation with KA, the animals were individually housed in cages to monitor them. The maximum epilepsy level of the animals was recorded every 10 minutes during the observation according to the Racine scale and for at least 120 minutes post-inoculation (m.p.i.). Comparative studies of the epilepsy levels between the treatment with PBS and with lovastatin (FIG. 12) were subsequently conducted. […]

CC(C)c1nc(N(C)S(C)(=O)=O)nc(-c2ccc(F)cc2)c1/C=C/[C@@H](O)C[C@@H](O)CC(=O)O [rosuvastatin]
adverse event after administration to a patient (patient; Lorenzoni et al., Arq Neuropsiquiatr. 2007): severe rhabdomyolysis with convulsions and coma

CCC(C)(C)C(=O)O[C@H]1C[C@@H](C)C=C2C=C[C@H](C)[C@H](CC[C@@H]3C[C@@H](O)CC(=O)O3)[C@H]21 [simvastatin]
time of the onset of the first convulsion (latency) ([1]; pretreated 50 mg/kg i.p. at 24 and 0.5 h before KA): 50.0 ± 11.8 min | mean epilepsy level (Racine scale) ([1]; after 30 m.p.i. of KA 30 mg/kg, 50 mg/kg i.p. pretreatment, FIG. 2): ≤ 4 | epileptic level (Racine scale) ([2]; 50 mg/kg direct oral administration, reached at 100 m.p.i. and maintained until 120 m.p.i., KA 25 mg/kg): 2 | epileptic level (Racine scale) ([2]; 50 mg/kg i.p., 70 m.p.i. of KA 25 mg/kg): 2 | epileptic level (Racine scale) ([2]; 50 mg/kg i.p., 120 m.p.i. of KA 25 mg/kg): 1

CC(C)n1c(/C=C/C(O)CC(O)CC(=O)O)c(-c2ccc(F)cc2)c2ccccc21 (centres unmarked) [fluvastatin]
adverse event after administration to a patient (patient; patient with catastrophic antiphospholipid syndrome, Miesbach et al., J Neurol Sci. 2005): focal convulsions

O=[N+]([O-])c1cc2nc(O)c(O)nc2cc1[N+](=O)[O-] [DNQX]
time of the onset of the first convulsion (latency) ([1]; pretreated 30 mg/kg i.p. at 24 and 0.5 h before KA): 23.3 ± 7.6 min | epilepsy level (Racine scale) versus PBS ([1]; after 30 m.p.i. of KA 30 mg/kg, 30 mg/kg i.p. pretreatment, FIG. 3): prevents the increase of the epileptic levels

CC[C@H](C)C(=O)O[C@H]1C[C@@H](C)C=C2C=C[C@H](C)[C@H](CC[C@@H]3C[C@@H](O)CC(=O)O3)[C@H]21 [lovastatin]
entrance into status epilepticus ([3]; PBS 3 of 5): 0 of 5 | epilepsy symptoms (Racine scale) at the end of the observation time ([3]; PBS+KA about 3, p-value=0.00059, FIG. 12): completely reduced the epilepsy symptoms
